10 compounds from ChEMBL document CHEMBL4813920, “Metronidazole-conjugates: A comprehensive review of recent developments towards synthesis and medicinal perspective” (Eur J Med Chem, 2021) can be followed below.

The test system of data set [1] is A549. Nature of the data set: Anticancer activity against human A549 cells assessed as inhibition of cell proliferation at 0.5 uM measured after 48 hrs by CCK8 assay relative to control. The format is functional. In general terms: Tetrazolium dyes change colour on reduction, which living cells bring about.
The test system of another data set is NCI-H446. Description: Anticancer activity against human NCI-H446 cells assessed as inhibition of cell proliferation at 0.5 uM measured after 48 hrs by CCK8 assay relative to control. In kind it is functional.
The test system of data set [2] is Escherichia coli. Nature of the data set: Potency index, ratio norfloxacin MIC to test compound MIC for antibacterial activity against Escherichia coli. In kind it is functional.
Data set [3] has as its system Pseudomonas aeruginosa. Nature of the data set: Antibacterial activity against Pseudomonas aeruginosa ATCC 27853 by microbroth dilution method. In kind it is functional.
The test system of data set [4] is Enterococcus faecalis. Nature of the data set: Potency index, ratio norfloxacin MIC to test compound MIC for antibacterial activity against Enterococcus faecalis. The format is functional.
The subject of the next data set is Candida albicans. Description: Antimicrobial activity against Candida albicans ATCC 90023. The format is functional.
Data set [5] concerns Pseudomonas aeruginosa. Description: Potency index, ratio norfloxacin MIC to test compound MIC for antibacterial activity against Pseudomonas aeruginosa ATCC 27853. The format is functional.
Data set [6] has as its system Acinetobacter baumannii. Description: Antibacterial activity against Acinetobacter baumannii by microbroth dilution method. In kind it is functional. A general note: Broth dilution looks for growth in wells or tubes with falling amounts of substance.
The next data set deals with Candida parapsilosis. Description: Antimicrobial activity against Candida parapsilosis ATCC 22019. The conditions noted are these: Lodderomyces parapsilosis. In kind it is functional.
Data set [7] deals with Enterococcus faecalis. Description: Antibacterial activity against Enterococcus faecalis by microbroth dilution method. In kind it is functional.
The subject of data set [8] is Acinetobacter baumannii. Description: Potency index, ratio norfloxacin MIC to test compound MIC for antibacterial activity against Acinetobacter baumannii. The format is functional.
Data set [9] has as its system Escherichia coli. Nature of the data set: Antibacterial activity against Escherichia coli by microbroth dilution method. The format is functional.
Another data set concerns B16-F10. Nature of the data set: Antiproliferative activity against mouse B16-F10 cells incubated for 24 to 48 hrs by MTT assay. The format is functional, cell-based.
Data set [10] has as its system Human immunodeficiency virus 1. Nature of the data set: Antiviral activity against HIV1 3B infected in human MT4 cells assessed as reduction in virus-induced cell death incubated for 5 days by MTT assay. In kind it is functional, organism-based. The following applies: Human immunodeficiency virus 1, 3B, MT4, 120 h.
Data set [11] can be described thus: Cytotoxicity against human MT4 cells assessed as reduction in cell viability after 5 days by MTT assay. In kind it is cell-based. The conditions noted are these: time 5 day.
The nature of data set [12]: Selectivity index, ratio of CC50 for cytotoxicity against human MT4 cells to EC50 for antiviral activity against HIV1 3B infected in human MT4 cells. In kind it is toxicity, cell-based. The following applies: read-out: Ratio CC50/EC50.
In data set [13] the test system is Trichomonas vaginalis. Nature of the data set: Anti-trichomonas activity against Trichomonas vaginalis CDC 085 incubated for 48 hrs by hemocytometer based eosin exclusion assay. In kind it is functional, organism-based. The conditions noted are these: CDC 085, 48 h.
Data set [14] deals with Trichomonas vaginalis. Description: Anti-trichomonas activity against Trichomonas vaginalis CDC 085 assessed as release of nitric oxide at 0.27 uM preincubated for 3 hrs followed by DAF-FM DA probe addition and measured after 30 mins by confocal microscopy. In kind it is functional. The conditions noted are these: time 3.5 hrs.
Data set [15] relates to Trichomonas vaginalis. Description: Anti-trichomonas activity against Trichomonas vaginalis JT incubated for 48 hrs by hemocytometer based eosin exclusion assay. The format is functional, organism-based.
Data set [16] concerns Trichomonas vaginalis. Nature of the data set: Anti-trichomonas activity against Trichomonas vaginalis JT assessed as release of nitric oxide at 0.027 uM preincubated for 3 hrs followed by DAF-FM DA probe addition and measured after 30 mins by confocal microscopy. The conditions noted are these: time 3.5 hrs. The format is functional.
The test system of data set [17] is Helicobacter pylori. Description: Antimicrobial activity against Helicobacter pylori SS1 incubated for 3 days by agar dilution method. In kind it is functional. The conditions noted are these: SS1, 72 h, time 3 day. (In general: In agar dilution, organisms are placed on agar that contains the substance at set levels.)
Data set [18] has as its system Helicobacter pylori. Description: Potency index, ratio of MIC for metronidazole to test compound for Helicobacter pylori SS1 incubated for 3 days by agar dilution method. In kind it is functional. The following applies: time 3 day.
Data set [19] concerns Helicobacter pylori. Nature of the data set: Potency index, ratio of MIC for metronidazole to test compound for Helicobacter pylori clinical isolate3 for 3 days by agar dilution method. The conditions noted are these: time 3 day. In kind it is functional.
In data set [20] the test system is Helicobacter pylori. Description: Potency index, ratio of MIC for metronidazole to test compound for Helicobacter pylori ATCC 43504 incubated for 3 days by agar dilution method. The format is functional, NCTC 11637 = CCUG 17874 = ATCC 43504. The following applies: time 3 day.
Data set [21] deals with Helicobacter pylori. Description: Potency index, ratio of MIC for metronidazole to test compound for Helicobacter pylori clinical isolate8 for 3 days by agar dilution method. The format is functional. The conditions noted are these: time 3 day.
For data set [22], the system named is Helicobacter pylori. Nature of the data set: Antimicrobial activity against Helicobacter pylori SS1 clinical isolate2 for 3 days by agar dilution method. In kind it is functional. The conditions noted are these: SS1 clinical isolate2, 72 h, time 3 day.
Data set [23] has as its system Helicobacter pylori. Nature of the data set: Antimicrobial activity against Helicobacter pylori clinical isolate8 for 3 days by agar dilution method. The conditions noted are these: clinical isolate8, 72 h, time 3 day. In kind it is functional.
Data set [24] concerns Helicobacter pylori. Nature of the data set: Antimicrobial activity against Helicobacter pylori clinical isolate3 for 3 days by agar dilution method. In kind it is functional. The conditions noted are these: clinical isolate3, 72 h, time 3 day.
The test system of data set [25] is Helicobacter pylori. Description: Antimicrobial activity against Helicobacter pylori ATCC 43504 incubated for 3 days by agar dilution method. In kind it is functional. The following applies: NCTC 11637 = CCUG 17874 = ATCC 43504, 72 h, time 3 day.
Data set [26] has as its system Helicobacter pylori. Nature of the data set: Potency index, ratio of MIC for metronidazole to test compound for Helicobacter pylori clinical isolate2 for 3 days by agar dilution method. In kind it is functional. The following applies: time 3 day.
The next data set deals with Entamoeba histolytica. Nature of the data set: Antiamoebic activity against Entamoeba histolytica HM-1:IMSS trophozoites measured after 72 hrs by microdilution method. In kind it is functional, organism-based.
The subject of data set [27] is A549. Description: cells. The following applies: Homo sapiens, A549, 48 h.
A further data set concerns MCF7. Nature of the data set: cells. The conditions noted are these: Homo sapiens, MCF7, 48 h.
Data set [28] relates to HepG2. Description: cells. The following applies: Homo sapiens, HepG2, 48 h.
The subject of data set [29] is HeLa. Nature of the data set: cells. The following applies: Homo sapiens, 48 h.
The next data set deals with U-251. Nature of the data set: Antiproliferative activity against human U-251 cells incubated for 24 to 48 hrs by CCK8 assay. The format is functional, cell-based.
Data set [30] relates to HeLa. Nature of the data set: Antiproliferative activity against human Hela cells incubated for 24 to 48 hrs by CCK8 assay. In kind it is functional, cell-based.
Data set [31] relates to HepG2. Description: Antiproliferative activity against human HepG2 cells incubated for 24 to 48 hrs by CCK8 assay. The format is functional, cell-based.
Data set [32] deals with A549. Nature of the data set: Antiproliferative activity against human A549 cells incubated for 24 to 48 hrs by CCK8 assay. In kind it is functional, cell-based.
Data set [33] deals with Telomerase reverse transcriptase (Homo sapiens, UniProt O14746). Nature of the data set: Inhibition of telomerase in human SGC-7901 cell extract by TRAP assay.
Chain of Telomerase reverse transcriptase (O14746 whole entry): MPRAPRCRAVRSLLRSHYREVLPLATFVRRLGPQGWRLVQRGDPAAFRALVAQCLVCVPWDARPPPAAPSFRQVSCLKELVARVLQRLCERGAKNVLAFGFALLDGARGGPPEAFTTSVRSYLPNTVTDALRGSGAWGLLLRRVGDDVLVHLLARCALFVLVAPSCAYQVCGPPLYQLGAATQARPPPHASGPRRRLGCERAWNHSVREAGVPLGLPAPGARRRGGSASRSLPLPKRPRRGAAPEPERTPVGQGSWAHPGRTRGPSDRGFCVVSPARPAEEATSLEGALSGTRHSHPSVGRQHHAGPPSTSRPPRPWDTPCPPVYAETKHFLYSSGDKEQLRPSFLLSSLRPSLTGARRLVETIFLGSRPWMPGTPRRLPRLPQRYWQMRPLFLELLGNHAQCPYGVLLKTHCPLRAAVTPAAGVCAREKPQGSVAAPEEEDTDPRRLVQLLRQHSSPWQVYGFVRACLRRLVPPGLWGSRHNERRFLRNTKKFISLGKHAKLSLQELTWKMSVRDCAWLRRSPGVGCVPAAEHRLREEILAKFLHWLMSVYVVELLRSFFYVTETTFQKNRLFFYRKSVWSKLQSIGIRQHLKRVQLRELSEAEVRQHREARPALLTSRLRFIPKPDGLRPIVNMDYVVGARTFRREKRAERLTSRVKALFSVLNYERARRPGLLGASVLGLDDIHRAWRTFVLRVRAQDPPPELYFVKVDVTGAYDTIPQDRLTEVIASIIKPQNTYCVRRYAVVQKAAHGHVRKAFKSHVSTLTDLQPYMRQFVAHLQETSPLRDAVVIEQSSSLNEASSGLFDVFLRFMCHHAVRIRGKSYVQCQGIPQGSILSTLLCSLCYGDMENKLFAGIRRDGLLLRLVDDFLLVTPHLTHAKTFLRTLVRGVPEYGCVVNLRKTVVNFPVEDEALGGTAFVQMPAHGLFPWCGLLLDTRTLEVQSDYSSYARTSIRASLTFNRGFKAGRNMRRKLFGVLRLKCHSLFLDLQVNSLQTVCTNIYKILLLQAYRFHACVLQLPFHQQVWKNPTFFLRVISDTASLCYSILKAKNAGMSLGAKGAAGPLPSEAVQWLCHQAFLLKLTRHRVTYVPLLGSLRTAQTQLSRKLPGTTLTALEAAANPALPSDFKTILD

SMILES strings stand for the structures. In brackets after ≈: the same amount, converted by molar mass.

On to `COc1cc2c(Nc3ccc(Br)cc3F)ncnc2cc1OCC1CCN(C(=O)Cn2cncc2[N+](=O)[O-])CC1`, for which the inhibition (as a rule, the change of the read-out against control, counted positive when it falls) at 0.5 µM with A549 [1] worked out at 62%; in the data set on NCI-H446 it was 59.9%.

In the case of `Cc1ncc([N+](=O)[O-])n1CC(O)CN1CCN(S(=O)(=O)c2ccc(N)cc2)CC1` (configuration not stated), the Ratio was determined as 84 with Escherichia coli [2], 11 in the data set with Enterococcus faecalis [4], 11 with Pseudomonas aeruginosa [5] and 11 with Acinetobacter baumannii [8]. The MIC (as a rule, the lowest concentration found to suppress growth) against Pseudomonas aeruginosa [3] was 38 µM (≈ 16.1 µg/mL); against Candida albicans it was 75 µM (≈ 31.8 µg/mL); in the data set on Acinetobacter baumannii [6] it was 75 µM (≈ 31.8 µg/mL); with Candida parapsilosis, 75 µM (≈ 31.8 µg/mL); with Enterococcus faecalis [7], 75 µM (≈ 31.8 µg/mL); with Escherichia coli [9], 19 µM (≈ 8.07 µg/mL).

On to `Cc1ccnc(NS(=O)(=O)c2ccc(/N=C\c3ccc(OCCn4c([N+](=O)[O-])cnc4C)cc3)cc2)n1`, for which the half-inhibitory concentration (IC50) – broadly, the concentration needed to halve the response being measured – in the data set with B16-F10 is 220 nM. That is a sub-micromolar value.

For `Cc1ncc([N+](=O)[O-])n1CCSc1ccccc1`, the EC50 – broadly, the concentration at which the effect is half-maximal – in [10] was determined as 2230 nM. Besides, the CC50 (commonly the concentration that lowers cell viability or growth by half) at 120 h in data set [11] is 24800 nM. The selectivity ratio in data set [12] was 11.

With `Cc1ncc([N+](=O)[O-])n1CCCl`, the half-inhibitory concentration (IC50) in the data set on Trichomonas vaginalis [13] was determined as 240 nM; in the data set with Trichomonas vaginalis [15], 6 nM. Moreover, the Activity in the data set on Trichomonas vaginalis [14] and with Trichomonas vaginalis [16] was 9000 a.u each time.

Consider `Cc1ncc([N+](=O)[O-])n1CCOc1cc(O)c2c(=O)c(-c3ccc(O)cc3)coc2c1`, for which the minimum inhibitory concentration (MIC) with Helicobacter pylori [17], in the data set on Helicobacter pylori [22], in the data set on Helicobacter pylori [23], with Helicobacter pylori [24] and against Helicobacter pylori [25] was 0.39 µg/mL (≈ 0.921 µM) throughout. The Ratio with Helicobacter pylori [18], in the data set on Helicobacter pylori [19], in the data set on Helicobacter pylori [20], with Helicobacter pylori [21] and with Helicobacter pylori [26] was greater than 50 throughout.

Turning to `OC(Cn1cncn1)(Cn1cncn1)c1ccc(F)cc1F` [FLUCONAZOLE], the MIC against Candida albicans and against Candida parapsilosis was 156 µM (≈ 47.8 µg/mL) in each case.

In turn, `Cc1ncc([N+](=O)[O-])n1CCOC(=O)Nc1ccc(OS(=O)(=O)c2ccc(C(F)(F)F)cc2)cc1` displayed an IC50 in the data set on Entamoeba histolytica of 240 nM.

Consider `COc1cc2c(c(OC)c1OC)-c1ccc(OC)c(=O)cc1[C@@H](NC(C)=O)CC2` [COLCHICINE], for which the IC50 in the data set with A549 [27] amounted to 37 nM; in the data set on MCF7, 38 nM; in the data set with HepG2 [28], 45 nM; with HeLa [29] it was 55 nM.

Consider `CN(C)c1ccc(/C=C/c2ncc([N+](=O)[O-])n2CCOC(=O)c2nccc3ccccc23)cc1`, for which the IC50 in the data set on U-251 was determined as 430 nM; in the data set on HeLa [30], 120 nM; in the data set on HepG2 [31] it was 140 nM; in the data set with A549 [32], 170 nM; in data set [33], 1920 nM.
